US6403084B1, “Mixed cultures for improved fermentation and aerobic stability of silage” (Pioneer Hi-Bred International, Inc., priority 2000, dated 2002)

Experiments:
[1] = Aerobic stability of inoculated high moisture corn silage (1999 HMC field trials, PVC silos)
Description: High moisture corn was harvested by combine at 22 to 28% moisture. Harvested grain was processed with a roller mill with rollers set at a gap width of approximately 3 mm.
Inoculants were formulated to deliver the appropriate rate as give in Table 2. A 30 cc syringe fitted with a 16-gauge needle was used to apply the inoculants to the forage at a rate of 1 ml/lb. The inoculants were mixed with the forage by rolling on clean plastic.
(§1) For each treatment two 4″×14″ PVC silos with air infusion holes near the top and bottom of the silo were filled with 2.5 kg of forage. Experimental silos were fitted with rubber quick caps at each end, the top having a bunsen valve to allow gas to escape. The silos were then kept in an environmentally controlled room until opening.
(§2) Two pre-ensiled forage samples were taken while filling during each trial for pH and microbial analysis. Lactic acid bacteria (LAB) were enumerated on modified DeMann-Rogosa-Sharpe (MRS) agar and yeasts and molds on Sabouraud Dextrose agar. Dry matter (DM) was determined by drying to a constant weight for 72 hours at 55° C. in a forced air oven. Inoculum was plated on modified MRS agar. Silos were opened after approximately 60 days, emptied and mixed. Samples were taken for pH, DM, digestibility, and aerobic stability analyses.
Aerobic stabilty was determined by placing 500 g of silage into a plastic tub with holes in the lid and bottom, placing a temperature probe in the center of the silage mass and placing the tub into a styrofoam cooler (Honig, Das Wirtschaftseigene Futter (1975) 21:25-32). The coolers were then kept in a temperature-controlled room where the ambient temperature and silage temperature were recorded by a datalogger every three hours for one week. DM was determined as per the pre-ensiled samples. Dried samples from the DM determination were ground through a 4 mm Wiley Mill screen and scanned by near infrared spectroscopy (NIRS).

[2] = Aerobic stability of inoculated whole plant corn silage (WPCS fall field trials, PVC silos)
Description: Whole plant corn forage was harvested at approximately 2/3 milk line with a 2-row pull type forage chopper. Theoretical chop length was […].
A 30 cc syringe fitted with a 16-gauge needle was used to apply the inoculants to the forage at a rate of 1 ml/lb. The inoculants were mixed with the forage by rolling on clean plastic.
as §1, with “filed” for “filled”, “1123 g, 1173 g, 1271 g, 1144 g, 1459 g, 1278 g, 1207 g and 1097 g” for “2.5 kg”, “then weighed for dry matter recovery. After filing, the silos were” for “then”, “opening and air infused for 24 hours on day 28.” for “opening.”
as §2, with “Three” for “Two”, “MRS” for “DeMann-Rogosa-Sharpe (MRS)”, “matter” for “matter (DM)”, “50 days” for “approximately 60 days,”, “DM” for “DM, digestibility,”
Aerobic stability was determined by placing 100 g of dry matter of silage into a plastic tub with holes in the lid and bottom, placing a temperature probe in the center of the silage mass and placing the tub into a styrofoam cooler (Honig, Das Wirtschaftseigene Futter (1975) 21:25-32). The coolers were then kept in a temperature-controlled room where the ambient temperature and silage temperature were recorded by a datalogger every three hours for one week. DM was determined as per the pre-ensiled samples. Frozen samples of selected samples were submitted for VFA analysis according to standard protocols.

- improvement of aerobic stability [1]: 94 h
- improvement of aerobic stability (in words) [1]: effective in all trials
Structure (SMILES): CCC(=O)O [PROP, Propionic acid]
- Loss ([1]; number of HMC field trials with 24 hour decrease in stability compared to control): 0
- Win ([1]; number of HMC field trials with 24 hour increase in stability compared to control): 8
- No Difference ([1]; number of HMC field trials with no difference from control): 0
- Loss ([2]; number of WPCS trials (of 8) with 24 hour decrease in stability compared to control): 2
- Win ([2]; number of WPCS trials (of 8) with 24 hour increase in stability compared to control): 3
- No Effect ([2]; number of WPCS trials (of 8) with no effect): 3
